Measurements taken from publication PMC6630443 (Viruses, 2019).

System: persistent USUV
Format: cell-based, Usutu virus

SMILES | USUV infectivity in supernatant after drug removal | Viral RNA levels in cellular supernatant by day 10
NC(=O)c1nc(F)cnc1O [Favipiravir, 6-fluoro-3-hydroxy-2-pyrazinecarboxamide] | re-emerged | barely detectable
NC(=O)c1ncn([C@@H]2O[C@H](CO)[C@@H](O)[C@H]2O)n1 [Ribavirin, 1-(β-D-Ribofuranosyl)-1H-1,2,4-triazole-3-carboxamide] | re-emerged | barely detectable
